Laboratory results taken from patent publication US20120135923A1, “Use of Melanocortins to Treat Dyslipidemia” (IPSEN PHARMA, S.A.S., priority 2009, published 2012).
Where two headings read alike, the source gives them in different places. One block for each compound: values may come before it. Bridge positions count the residues as written; N and C are the ends. Square brackets hold non-standard residues; d marks the D form. Peptide text beside a SMILES is read from it. d2Nal = N[C@H](Cc1ccc2ccccc2c1)C(=O)O; Bta = N[C@@H](Cc1csc2ccccc12)C(=O)O; Nle = CCCC[C@H](N)C(=O)O; GABA = NCCCC(=O)O

Legend:
hMC3-R [1] = target: T1, hMC3-R (Homo sapiens, UniProt P41968); test: Radioligand binding assay, [125I]-NDP-α-MSH competition, CHO-K1 membranes; details: Table 5
T1 construct: expressed in transfected cells; host or cells: CHO-K1
Method: (§1) Cellular membranes used for the in vitro receptor binding assays were obtained from transgenic CHO-K1 cells stably expressing hMC-R receptor subtypes 1, 3, 4 or 5. […] The pellets were resuspended in the same buffer and centrifuged at 50,000 g for 10 minutes at approximately 4° C. The washed pellets containing the cellular membranes were stored at approximately −80° C.
(§2) Cell membranes (1-10 μg protein/well) prepared as described above were incubated in 50 mM Tris-HCl at pH 7.4 containing 0.2% bovine serum albumin (BSA), 5 mM MgCl2, 1 mM CaCl2 and 0.1 mg/mL bacitracin, with increasing concentrations of the test compound and 0.1-0.3 nM [^25I]-NDP-α-MSH for approximately 90-120 minutes at approximately 37° C. […] Filters were washed three times with 50 mM Tris-HCl at pH 7.4 at a temperature of approximately 0-4° C. and then assayed for radioactivity using a Packard Topcount® scintillation counter. Binding data were analyzed by computer-assisted non-linear regression analysis (XL fit; IDBS).

hMC1-R [2] = target: T2, hMC1-R (Homo sapiens, UniProt Q01726); test: as above
T2 construct: expressed in transfected cells; host or cells: CHO-K1
Method: as §1, §2

hMC5-R [3] = target: T3, hMC5-R (Homo sapiens, UniProt P33032); test: as above; details: Table 5; read-out: Ki hMC5-R
T3 construct: expressed in transfected cells; host or cells: CHO-K1
Method: as §1, §2

hMC5-R [4] = target: T3, hMC5-R; test: cyclic AMP bioassay (ECL) in CHO-K1 cells; format: cell-based
Method: (§3) Intracellular cyclic AMP (cAMP) levels were determined by an electrochemiluminescence (ECL) assay (Meso Scale Discovery®, Gaithersburg, Md.; referred to hereinafter as MSD). […] Transgenic CHO-K1 cells stably expressing hMC receptor subtypes 1, 3, 4 or 5 were dispensed at a density of approximately 7,000 cells/well in 384-well Multi-Array®plates (MSD) containing integrated carbon electrodes and coated with anti-cAMP antibody. Increasing concentrations of the test compounds were added and the cells were incubated for approximately 40 minutes at approximately 37° C. […] At the end of the second incubation period read buffer (Tris-buffered solution containing an ECL co-reactant and Triton X-100 at ph 7.8) was added and the cAMP levels in the cell lysates were immediately determined by ECL detection with a Sector Imager 6000 Reader® (MSD). Data were analyzed using a computer-assisted non-linear regression analysis (XL fit; IDBS) and reported as either an EC50 value or a Kb value.
(§4) The Kb value reflects the potency of an antagonist and is determined by Schild analysis. In brief, concentration-response curves of an agonist are carried out in the presence of increasing concentrations of an antagonist. […] It is calculated by extrapolating the line on a Schild plot to zero on the y-axis.

hMC1-R [5] = target: T2, hMC1-R; test: cyclic AMP bioassay (ECL) in CHO-K1 cells; format: cell-based
Method: as §3, §4

hMC3-R [6] = target: T1, hMC3-R; test: cyclic AMP bioassay (ECL) in CHO-K1 cells; format: cell-based
hMC4-R = target: T4, hMC4-R (Homo sapiens, UniProt P32245); test: cyclic AMP bioassay (ECL) in CHO-K1 cells; format: cell-based
T4 construct: expressed in transfected cells; host or cells: CHO-K1

[7] = Table 9A/9B, read-out: EC50 hMC5-R
[8] = Table 9A/9B, read-out: EC50 hMC1-R
[9] = Table 9A/9B, read-out: EC50 hMC3-R
[10] = Table 9A/9B, read-out: EC50 hMC4-R

T2 sequence (Q01726 whole entry): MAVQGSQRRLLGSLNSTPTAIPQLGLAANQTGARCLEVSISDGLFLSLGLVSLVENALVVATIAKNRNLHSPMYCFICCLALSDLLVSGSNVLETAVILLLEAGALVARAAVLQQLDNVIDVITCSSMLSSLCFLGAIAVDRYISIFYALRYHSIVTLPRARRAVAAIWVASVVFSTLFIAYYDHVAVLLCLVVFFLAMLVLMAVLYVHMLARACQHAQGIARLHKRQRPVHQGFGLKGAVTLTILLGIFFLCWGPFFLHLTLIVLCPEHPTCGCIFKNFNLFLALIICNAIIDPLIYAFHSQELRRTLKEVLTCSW
T1 sequence (P41968 whole entry): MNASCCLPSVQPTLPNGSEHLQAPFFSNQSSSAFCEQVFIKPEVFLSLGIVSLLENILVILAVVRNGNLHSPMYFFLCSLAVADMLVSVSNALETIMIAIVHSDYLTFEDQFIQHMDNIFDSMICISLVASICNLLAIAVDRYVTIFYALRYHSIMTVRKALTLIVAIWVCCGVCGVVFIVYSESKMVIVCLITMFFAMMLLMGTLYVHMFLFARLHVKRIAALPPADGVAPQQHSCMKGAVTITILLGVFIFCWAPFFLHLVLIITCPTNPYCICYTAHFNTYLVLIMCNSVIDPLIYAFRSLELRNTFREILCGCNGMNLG
T4 sequence (P32245 whole entry): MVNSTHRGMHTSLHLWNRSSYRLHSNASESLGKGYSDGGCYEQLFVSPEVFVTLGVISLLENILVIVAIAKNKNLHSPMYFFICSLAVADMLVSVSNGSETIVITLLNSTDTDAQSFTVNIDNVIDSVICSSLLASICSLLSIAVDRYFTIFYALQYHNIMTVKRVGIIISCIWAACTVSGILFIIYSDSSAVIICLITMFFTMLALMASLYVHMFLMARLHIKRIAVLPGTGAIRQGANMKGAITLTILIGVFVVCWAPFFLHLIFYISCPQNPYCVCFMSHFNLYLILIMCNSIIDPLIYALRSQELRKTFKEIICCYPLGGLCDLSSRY
T3 sequence (P33032 whole entry): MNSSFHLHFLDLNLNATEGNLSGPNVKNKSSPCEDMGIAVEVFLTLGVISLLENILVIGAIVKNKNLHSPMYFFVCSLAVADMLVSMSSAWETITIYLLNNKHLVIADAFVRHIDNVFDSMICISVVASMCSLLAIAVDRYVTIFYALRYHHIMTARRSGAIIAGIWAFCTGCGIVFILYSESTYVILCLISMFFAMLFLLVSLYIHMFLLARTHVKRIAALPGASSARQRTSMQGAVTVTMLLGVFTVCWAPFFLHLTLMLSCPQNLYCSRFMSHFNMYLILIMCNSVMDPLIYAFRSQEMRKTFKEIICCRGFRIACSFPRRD

Compound: CCCC[C@H](NC(C)=O)C(=O)N[C@H]1CSSC[C@@H](C(N)=O)NC(=O)CCCNC(=O)[C@H](Cc2c[nH]c3ccccc23)NC(=O)[C@H](CCCNC(=N)N)NC(=O)[C@@H](Cc2ccccc2)NC(=O)[C@H](Cc2cccnc2)NC1=O [Ac-Nle-c(Cys-3-Pal-D-Phe-Arg-Trp-Gaba-Cys)-NH2]
Ki (hMC3-R [1]; read-out: Ki hMC3-R): 151 nM
Ki (hMC1-R [2]; Table 5, read-out: Ki hMC1-R): 21.1 nM
Ki (hMC5-R [3]): 92.6 nM

Compound: CCCC[C@H](NC(C)=O)C(=O)N[C@H]1CSSC[C@@H](C(N)=O)NC(=O)[C@H](Cc2csc3ccccc23)NC(=O)[C@H](CCCNC(=N)N)NC(=O)[C@@H](Cc2ccc3ccccc3c2)NC(=O)[C@H](Cc2c[nH]cn2)NC(=O)[C@@H](C)NC1=O [Ac-Nle-c(Cys-D-Ala-His-D-2-Nal-Arg-Bal-Cys)-NH2] (Ac-[Nle]C[dA]H[d2Nal]R[Bta]C-NH2; disulfide 2-8)
Ki (hMC3-R [1]; read-out: Ki hMC3-R): 12.7 nM
Ki (hMC1-R [2]; Table 5, read-out: Ki hMC1-R): 22.2 nM
Ki (hMC5-R [3]): 125 nM

Compound: CCCC[C@H](NC(C)=O)C(=O)N[C@H]1CSSC(C)(C)[C@@H](C(N)=O)NC(=O)[C@H](Cc2c[nH]c3ccccc23)NC(=O)[C@H](CCCNC(=N)N)NC(=O)[C@@H](Cc2ccccc2)NC(=O)[C@H](Cc2c[nH]cn2)NC(=O)[C@@H](C)NC1=O [Ac-Nle-c(Cys-D-Ala-His-D-Phe-Arg-Trp-Pen)-NH2]
EC50 (hMC5-R [4]): 2240 nM
EC50 (hMC1-R [5]): 14.3 nM
EC50 (hMC3-R [6]): 2.03 nM
Ki (hMC3-R [1]; Ki hMC3-R): 22.8 nM
Ki (hMC1-R [2]; Ki hMC1-R, Table 5): 29.1 nM
EC50 (hMC4-R): 0.183 nM

Compound: CCCC[C@H](NC(C)=O)C(=O)N[C@H]1CSSC[C@@H](C(N)=O)NC(=O)[C@H](Cc2c[nH]c3ccccc23)NC(=O)[C@H](CCCNC(=N)N)NC(=O)[C@@H](Cc2ccccc2)NC(=O)[C@H](Cc2c[nH]cn2)NC(=O)[C@@H](CC2CCCCC2)NC1=O [Ac-Nle-c(Cys-D-Cha-His-D-Phe-Arg-Trp-Cys)-NH2]
EC50 (hMC5-R [4]; [7]): 45.3 nM
EC50 (hMC1-R [5]; [8]): 0.819 nM
EC50 (hMC3-R [6]; [9]): 0.541 nM
Ki (hMC3-R [1]; read-out: Ki hMC3-R): 2.08 nM
EC50 (hMC4-R; [10]): 0.453 nM

Compound: CCCC[C@H](NC(C)=O)C(=O)N[C@H]1CSSC[C@@H](C(N)=O)NC(=O)[C@H](Cc2c[nH]c3ccccc23)NC(=O)[C@H](CCCNC(=N)N)NC(=O)[C@@H](Cc2ccccc2)NC(=O)[C@H](Cc2c[nH]cn2)NC(=O)[C@@H](C(C)(C)C)NC1=O [Ac-Nle-c(Cys-D-Tle-His-D-Phe-Arg-Trp-Cys)-NH2]
Ki (hMC1-R [2]; Table 5, read-out: Ki hMC1-R): 12 nM
Ki (hMC5-R [3]): 40 nM

Continued, values first:

Ki (hMC3-R [1]; read-out: Ki hMC3-R): 104 nM
Ki (hMC5-R [3]): 40 nM
Compound: CCCC[C@H](NC(C)=O)C(=O)N[C@H]1CSSC[C@@H](C(N)=O)NC(=O)[C@H](Cc2c[nH]c3ccccc23)NC(=O)[C@H](CCCNC(=N)N)NC(=O)[C@@H](Cc2ccccc2)NC(=O)[C@H](Cc2c[nH]cn2)NC(=O)[C@@H](C(C)C)NC1=O [Ac-Nle-c(Cys-D-Val-His-D-Phe-Arg-Trp-Cys)-NH2]

EC50 (hMC1-R [5]; Table 11, read-out: EC50 hMC1): 54.3 nM
EC50 (hMC3-R [6]; Table 11, read-out: EC50 hMC3): 12.2 nM
Ki (hMC1-R [2]; Table 7, read-out: Ki hMC1): 14.3 nM
EC50 (hMC4-R; Table 11, read-out: EC50 hMC4): 0.177 nM
Compound: CCCC[C@@H]1NC(=O)N(CC(=O)N[C@H]2CSSC[C@@H](C(N)=O)NC(=O)[C@H](Cc3c[nH]c4ccccc34)NC(=O)[C@H](CCCNC(=N)N)NC(=O)[C@@H](Cc3ccccc3)NC(=O)[C@H](Cc3cnc[nH]3)NC(=O)[C@H](CCC(=O)O)NC2=O)C1=O [Hydantoin(C(O)-(Nle-Gly))-c(Cys-Glu-His-D-Phe-Arg-Trp-Cys)-NH2]

EC50 (hMC5-R [4]; [7]): 1.7 nM
EC50 (hMC1-R [5]; [8]): 0.37 nM
EC50 (hMC3-R [6]; [9]): 0.1 nM
Ki (hMC1-R [2]; Table 5, read-out: Ki hMC1-R): 0.05 nM
EC50 (hMC4-R; [10]): 0.021 nM
Compound: CCCC[C@H](N)C(=O)N[C@H]1CSSC[C@@H](C(N)=O)NC(=O)CCCNC(=O)[C@H](Cc2c[nH]c3ccccc23)NC(=O)[C@H](CCCNC(=N)N)NC(=O)[C@@H](Cc2ccccc2)NC(=O)[C@H](Cc2c[nH]cn2)NC1=O [Nle-c(Cys-His-D-Phe-Arg-Trp-Gaba-Cys)-NH2] (H-[Nle]CH[dF]RW[GABA]C-NH2; disulfide 2-8)

Ki (hMC3-R [1]; read-out: Ki hMC3-R): 15.2 nM
Compound: N=C(N)NCCC[C@@H]1NC(=O)[C@@H](Cc2ccccc2)NC(=O)[C@H](Cc2c[nH]cn2)NC(=O)[C@@H](NC(=O)[C@@H](N)Cc2ccccc2)CSSC[C@@H](C(N)=O)NC(=O)CCCNC(=O)[C@H](Cc2c[nH]c3ccccc23)NC1=O [Phe-c(Cys-His-D-Phe-Arg-Trp-Gaba-Cys)-NH2] (H-FCH[dF]RW[GABA]C-NH2; disulfide 2-8)
